Patent publication US11613542B2, “Sulfonylureas and sulfonylthioureas as NLRP3 inhibitors” (Inflazome Limited, priority 2017, dated 2023)
Structures can show the parent of a compound that is named as a salt. Where two headings read alike, the source gives them in different places.

Key:
NLRP3 [1] = target: T1, NLRP3 (Homo sapiens, UniProt Q96P20); experiment: Human whole blood IL1β release assay; type: cell-based; design: Human whole blood in Li-heparin tubes was obtained from healthy donors; from tissue; host or cells: human whole blood from healthy donors, LPS-primed, nigericin-stimulated; conditions: human whole blood, 1 μg/ml LPS, compound 3 hrs, nigericin 10 μM 1 hr, IL-1β AlphaLisa; read-out: HWB IC50
T1 sequence (Q96P20 whole entry): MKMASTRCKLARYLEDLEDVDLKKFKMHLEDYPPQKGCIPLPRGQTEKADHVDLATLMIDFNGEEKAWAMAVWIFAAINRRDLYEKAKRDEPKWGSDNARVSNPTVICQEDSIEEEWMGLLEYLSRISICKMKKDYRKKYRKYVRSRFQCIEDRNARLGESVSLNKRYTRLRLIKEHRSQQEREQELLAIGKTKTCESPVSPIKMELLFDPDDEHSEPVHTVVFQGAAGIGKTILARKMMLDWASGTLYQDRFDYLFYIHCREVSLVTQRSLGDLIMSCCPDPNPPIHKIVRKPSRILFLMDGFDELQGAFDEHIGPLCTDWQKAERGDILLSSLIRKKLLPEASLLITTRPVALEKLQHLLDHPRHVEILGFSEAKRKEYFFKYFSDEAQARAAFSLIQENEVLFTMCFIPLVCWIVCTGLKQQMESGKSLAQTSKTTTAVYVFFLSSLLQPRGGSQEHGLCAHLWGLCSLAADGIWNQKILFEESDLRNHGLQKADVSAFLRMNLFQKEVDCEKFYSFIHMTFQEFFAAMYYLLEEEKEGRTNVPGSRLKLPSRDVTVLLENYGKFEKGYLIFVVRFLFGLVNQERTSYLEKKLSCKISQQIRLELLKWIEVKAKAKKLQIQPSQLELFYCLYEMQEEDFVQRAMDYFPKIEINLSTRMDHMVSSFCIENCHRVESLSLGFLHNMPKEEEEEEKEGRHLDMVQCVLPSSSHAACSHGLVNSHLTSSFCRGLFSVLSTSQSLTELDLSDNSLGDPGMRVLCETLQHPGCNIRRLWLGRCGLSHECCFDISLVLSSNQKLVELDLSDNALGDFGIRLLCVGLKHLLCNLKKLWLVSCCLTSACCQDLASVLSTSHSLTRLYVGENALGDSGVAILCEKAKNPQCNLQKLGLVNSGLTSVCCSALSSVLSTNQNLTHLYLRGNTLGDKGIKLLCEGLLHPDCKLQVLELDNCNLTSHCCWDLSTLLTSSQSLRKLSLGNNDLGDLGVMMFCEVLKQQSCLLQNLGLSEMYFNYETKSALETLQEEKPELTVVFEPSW
Procedure, shortened: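 Healthy-donor human whole blood (Li-heparin) primed with 1 μg/ml LPS, with compound (8-point half-log, 10 μM top) or 0.1% DMSO for 3 h at 37 °C, then 10 μM nigericin (final) for 1 h. Supernatant IL-1β read by AlphaLISA; IC50 from 4-parameter variable-slope fit.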

[2] = Pharmacokinetic parameters in male Sprague Dawley rats (intravenous and oral administration); type: in vivo; conditions: dose per compound (mg/kg); for bioavailability: rat; for clearance / half-life / AUC / Vd / CL/F / Cmax / Tmax / Cl / T1/2 / Vdss / Cl/F: rat plasma; for Vd: read-out: Vdss
Description: Pharmacokinetic parameters were determined in male Sprague Dawley rats (Charles River, UK, 250-350 g; or Vital River Laboratory Animal Technology Co Ltd, Beijing, China, 7-9 weeks old). Animals were individually housed during the study and maintained under a 12 h light/dark cycle. Animals had free access to food and water except that some orally dosed animals were food deprived overnight prior to the study.
For intravenous administration, compounds were formulated as a solution in water or DMSO:PBS [10:90] in 2 mL/kg dosing volume and administered via tail vein. For oral administration, compounds were formulated as a solution in water or DMSO:water [10:90] in 5 mL/kg dosing volume and administered orally.
Serial blood samples (about 120-300 μL) were taken from each animal at each of 8 time-points post dose (0.083, 0.25, 0.5, 1, 2, 4, 8 and 24 h) or at each of 12 time-points post dose (0.03, 0.1, 0.17, 0.25, 0.5, 1, 2, 4, 6, 8,12 and 24 h) or pre-dose and at each of 9 time-points post dose (0.25, 0.5, 1, 2, 4, 6, 8, 12 and 24 h). Samples were held on ice for no longer than 30 minutes before centrifugation (10,000 rpm (8,385 g) for 3 minutes; or 5,696 rpm (3,000 g) for 15 minutes) for plasma generation. Plasma was frozen on dry ice prior to bioanalysis. PK parameters were generated from LC-MS/MS data using Dotmatics or Phoenix WinNonlin 6.3 software.

NLRP3 [3] = target: T1, NLRP3; experiment: THP-1 cells pyroptosis assay; type: cell-based; design: Seed THP-1 cells (25,000 cells/well) containing 1.0 μg/ml LPS; host or cells: THP-1 cells, LPS-primed, nigericin-stimulated; conditions: THP-1 cells, 1.0 μg/ml LPS, compound 3 hrs, nigericin 5 μM 1 hr, resazurin readout; read-out: THP IC50
Procedure, shortened: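 THP-1 cells (25,000/well) in serum-free RPMI with 1.0 μg/ml LPS, treated with compound (8-point half-log dilution, 10 μM top, 0.1% DMSO), then nigericin 5 μM final. Viability read by resazurin (100 μM final, 1-2 h, 37° C) fluorescence Ex 560/Em 590 nm; IC50 from 4-parameter variable-slope fit.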

[4] = male, Sprague Dawley, plasma, oral administration, read-out: Bioavailability
[5] = male, Sprague Dawley, intravenous administration
[6] = male, Sprague Dawley, intravenous administration, read-out: AUC
[7] = male, Sprague Dawley, oral administration
[8] = male, Sprague Dawley, oral administration, read-out: AUC
[9] = male, Sprague Dawley, oral administration, read-out: Cmax
[10] = male, Sprague Dawley, oral administration, read-out: Tmax

Row | Compound | IC50 (NLRP3 [1]) [nM] | clearance [2, 5] [mL/min/kg] | half-life [2, 5] [h] | AUC [2, 6] [ng·h/mL] | Vd [2, 5] [L/kg] | IC50 (NLRP3 [3]) [nM] | AUC ([2]; intravenous administration) [ng·h/mL] | Cl ([2]; intravenous administration) [mL/min/kg] | T1/2 ([2]; intravenous administration) [h] | Vdss ([2]; intravenous administration) [L/kg] | further results
1 | CN(C)CCn1ccc(S(=O)(=O)NC(=O)Nc2c3c(cc4c2CCC4)CCC3)n1 [Example 7, 1-(2-(Dimethylamino)ethyl)-N-((1,2,3,5,6,7-hexahydro-s-indacen-4-yl)carbamoyl)-1H-pyrazole-3-sulfonamide] | < 400 | 2.6 | 3.7 | 6420 | 0.38 | < 640 |  |  |  |  | bioavailability [2, 4]: 52.7%; CL/F [2, 7]: 5 mL/min/kg; half-life [2, 7]: 3 h; AUC [2, 8]: 15200 ng·h/mL; Cmax [2, 9]: 3250 ng/mL; Tmax [2, 10]: 1 h
2 | CN(C)CC(C)(C)n1ccc(S(=O)(=O)NC(=O)Nc2c3c(cc4c2CCC4)CCC3)n1 [Example 17, 1-(1-(Dimethylamino)-2-methylpropan-2-yl)-N-((1,2,3,5,6,7-hexahydro-s-indacen-4-yl)carbamoyl)-1H-pyrazole-3-sulfonamide] | < 1600 | 1.1 | 2.5 | 15800 | 0.18 | < 160 |  |  |  |  | bioavailability [2, 4]: 18.5%; CL/F [2, 7]: 6.1 mL/min/kg; half-life [2, 7]: 2.3 h; AUC [2, 8]: 8760 ng·h/mL; Cmax [2, 9]: 2810 ng/mL; Tmax [2, 10]: 0.67 h
3 | CN1CC[C@H]1Cn1ccc(S(=O)(=O)NC(=O)Nc2c3c(cc4c2CCC4)CCC3)n1 [Example 20, (S)—N-((1,2,3,5,6,7-Hexahydro-s-indacen-4-yl)carbamoyl)-1-((1-methylazetidin-2-yl)methyl)-1H-pyrazole-3-sulfonamide] | < 400 | 2.4 | 2.9 | 11300 | 0.32 | < 160 |  |  |  |  | 
4 | CC(C)n1nc(S(=O)(=O)NC(=O)Nc2c3c(cc4c2CCC4)CCC3)cc1C(=O)N1CCC1 [Example 131, 5-(Azetidine-1-carbonyl)-N-((1,2,3,5,6,7-hexahydro-s-indacen-4-yl)carbamoyl)-1-isopropyl-1H-pyrazole-3-sulfonamide, partial ammonium salt] | < 1600 |  |  |  |  | < 160 | 302.7 | 55.3 | 1.6 | 1.66 | 
5 | CC(C)c1cc(F)cc(C(C)C)c1NC(=O)NS(=O)(=O)c1cc(C(=O)N2CCC2)n(C)n1 [Example 145, 5-(azetidine-1-carbonyl)-N-((4-fluoro-2,6-diisopropylphenyl)carbamoyl)-1-methyl-1H-pyrazole-3-sulfonamide, sodium salt] | < 400 |  |  |  |  | < 160 | 415.0 | 40.3 | 6.4 | 7.96 | 
6 | CC(C)c1cc(F)cc(C(C)C)c1NC(=O)NS(=O)(=O)c1cc(C(=O)N(C)C)n(C)n1 [Example 160, 3-(N-((4-Fluoro-2,6-diisopropylphenyl)carbamoyl)sulfamoyl)-N,N,1-trimethyl-1H-pyrazole-5-carboxamide, sodium salt] | < 400 |  |  |  |  | < 640 | 283.3 | 59.2 | 3.3 | 4.08 | AUC ([2]; oral administration): 769.7 ng·h/mL; Cl/F ([2]; oral administration): 109.8 mL/min/kg; Cmax ([2]; oral administration): 494.7 ng/mL; T1/2 ([2]; oral administration): 9.7 h; Tmax ([2]; oral administration): 0.17 h; bioavailability ([2]; oral administration): 54.3
7 | CCN(C)C(=O)c1cc(S(=O)(=O)NC(=O)Nc2c3c(cc4c2CCC4)CCC3)nn1C [Example 162, N-Ethyl-3-(N-((1,2,3,5,6,7-hexahydro-s-indacen-4-yl)carbamoyl)sulfamoyl)-N,1-dimethyl-1H-pyrazole-5-carboxamide] | < 800 |  |  |  |  | < 160 | 1723.1 | 25.0 | 0.1 | 0.24 | 
8 | CC(C)c1cccc(C(C)C)c1NC(=O)NS(=O)(=O)c1cc(C(=O)N(C)C)n(C)n1 [Example 167, 3-(N-((2,6-Diisopropylphenyl)carbamoyl)sulfamoyl)-N,N,1-trimethyl-1H-pyrazole-5-carboxamide, sodium salt] | < 400 |  |  |  |  | < 640 | 333.7 | 48.7 | 0.5 | 0.99 | 
9 | CN(C)C(=O)c1cc(S(=O)(=O)NC(=O)Nc2c3c(cc4c2CCC4)CCC3)nn1C [Example 169, 3-(N-((1,2,3,5,6,7-Hexahydro-s-indacen-4-yl)carbamoyl)sulfamoyl)-N,N,1-trimethyl-1H-pyrazole-5-carboxamide, sodium salt] | < 400 |  |  |  |  | < 160 | 3389.9 | 24.8 | 25.3 | 17.78 | AUC ([2]; oral administration): 1052.0 ng·h/mL; Cl/F ([2]; oral administration): 49.5 mL/min/kg; Cmax ([2]; oral administration): 599.6 ng/mL; T1/2 ([2]; oral administration): 3.4 h; Tmax ([2]; oral administration): 0.25 h; bioavailability ([2]; oral administration): 62.0
10 | CN(CCO)C(=O)c1cc(S(=O)(=O)NC(=O)Nc2c3c(cc4c2CCC4)CCC3)nn1C [Example 176, 3-(N-((1,2,3,5,6,7-Hexahydro-s-indacen-4-yl)carbamoyl)sulfamoyl)-N-(2-hydroxyethyl)-N,1-dimethyl-1H-pyrazole-5-carboxamide, partial ammonium salt] | < 400 |  |  |  |  | < 160 | 786.6 | 114.1 | 0.3 | 2.37 | 
